Reference: publication PMC5224920, “Assessing the mechanism and therapeutic potential of modulators of the human Mediator complex-associated protein kinases” (eLife, 2016)

Tested on: 12 single or co-culture in vitro tissue models of primary cells
Assay: Culture/co-culture cell model panel, extracellular biomarkers (DiscoveRx)
Assay type: cell-based, human

SMILES: Cc1n[nH]c2ncc(C(=O)N3CCC[C@H]3c3ccc(Cl)cc3)cc12 [CMPD4]
- tPA (BENo, 3.70E2 nM): -0.062
- uPA (BENo, 3.70E2 nM): -0.019
- CCL26/Eotaxin-3 (BENo, 4.12E1 nM): 0.012
- CD54/ICAM-1 (BENo, 4.12E1 nM): -0.077
- CD87/uPAR (BENo, 4.12E1 nM): -0.027
- CXCL8/IL-8 (BENo, 4.12E1 nM): 0.020
- CXCL9/MIG (BENo, 4.12E1 nM): -0.004
- CXCL10/IP-10 (BENo, 4.12E1 nM): -0.033
- CXCL11/I-TAC (BENo, 4.12E1 nM): -0.036
- EGFR (BENo, 4.12E1 nM): 0.00426
- HLA-DR (BENo, 4.12E1 nM): -0.016
- IL-1alpha (BENo, 4.12E1 nM): 0.010
- Keratin 8/18 (BENo, 4.12E1 nM): -0.010
- MMP-1 (BENo, 4.12E1 nM): -0.031
- MMP-9 (BENo, 4.12E1 nM): -0.003
- PAI-I (BENo, 4.12E1 nM): -0.067
- SRB (BENo, 4.12E1 nM): 0.00253
- tPA (BENo, 4.12E1 nM): -0.061
- uPA (BENo, 4.12E1 nM): -0.015
- CCL26/Eotaxin-3 (BENo, 4.57E0 nM): 0.029
- CD54/ICAM-1 (BENo, 4.57E0 nM): -0.040
- CD87/uPAR (BENo, 4.57E0 nM): 0.028
- CXCL8/IL-8 (BENo, 4.57E0 nM): 0.039
- CXCL9/MIG (BENo, 4.57E0 nM): 0.050
- CXCL10/IP-10 (BENo, 4.57E0 nM): 0.057
- CXCL11/I-TAC (BENo, 4.57E0 nM): -0.035
- EGFR (BENo, 4.57E0 nM): 0.015
- HLA-DR (BENo, 4.57E0 nM): 0.068
- IL-1alpha (BENo, 4.57E0 nM): -0.00546
- Keratin 8/18 (BENo, 4.57E0 nM): -0.020
- MMP-1 (BENo, 4.57E0 nM): -0.009
- MMP-9 (BENo, 4.57E0 nM): -0.020
- PAI-I (BENo, 4.57E0 nM): -0.00037
- SRB (BENo, 4.57E0 nM): 0.018
- tPA (BENo, 4.57E0 nM): 0.003
- uPA (BENo, 4.57E0 nM): -0.020
- CCL2/MCP-1 (BF4T, 1.00E4 nM): -0.010
- CCL26/Eotaxin-3 (BF4T, 1.00E4 nM): -0.144
- CD54/ICAM-1 (BF4T, 1.00E4 nM): -0.092
- CD90 (BF4T, 1.00E4 nM): -0.00366
- CD106/VCAM-1 (BF4T, 1.00E4 nM): -0.026
- CXCL8/IL-8 (BF4T, 1.00E4 nM): 0.017
- IL-1alpha (BF4T, 1.00E4 nM): -0.039
- Keratin 8/18 (BF4T, 1.00E4 nM): -0.020
- MMP-1 (BF4T, 1.00E4 nM): -0.016
- MMP-3 (BF4T, 1.00E4 nM): 0.014
- MMP-9 (BF4T, 1.00E4 nM): -0.031
- PAI-I (BF4T, 1.00E4 nM): -0.059
- SRB (BF4T, 1.00E4 nM): 0.004
- tPA (BF4T, 1.00E4 nM): -0.022
- uPA (BF4T, 1.00E4 nM): -0.009
- CCL2/MCP-1 (BF4T, 1.11E3 nM): -0.045
- CCL26/Eotaxin-3 (BF4T, 1.11E3 nM): -0.209
- CD54/ICAM-1 (BF4T, 1.11E3 nM): -0.086
- CD90 (BF4T, 1.11E3 nM): -0.00131
- CD106/VCAM-1 (BF4T, 1.11E3 nM): -0.021
- CXCL8/IL-8 (BF4T, 1.11E3 nM): -0.056
- IL-1alpha (BF4T, 1.11E3 nM): -0.038
- Keratin 8/18 (BF4T, 1.11E3 nM): 0.020
- MMP-1 (BF4T, 1.11E3 nM): -0.016
- MMP-3 (BF4T, 1.11E3 nM): -0.0065
- MMP-9 (BF4T, 1.11E3 nM): -0.011
- PAI-I (BF4T, 1.11E3 nM): -0.00269
- SRB (BF4T, 1.11E3 nM): 0.011
- tPA (BF4T, 1.11E3 nM): 0.007
- uPA (BF4T, 1.11E3 nM): -0.016
- CCL2/MCP-1 (BF4T, 1.23E2 nM): -0.067
- CCL26/Eotaxin-3 (BF4T, 1.23E2 nM): -0.191
- CD54/ICAM-1 (BF4T, 1.23E2 nM): -0.058
- CD90 (BF4T, 1.23E2 nM): -0.00126
- CD106/VCAM-1 (BF4T, 1.23E2 nM): -0.012
- CXCL8/IL-8 (BF4T, 1.23E2 nM): -0.021
- IL-1alpha (BF4T, 1.23E2 nM): -0.020
- Keratin 8/18 (BF4T, 1.23E2 nM): -0.022
- MMP-1 (BF4T, 1.23E2 nM): 0.00135
- MMP-3 (BF4T, 1.23E2 nM): -0.007
- MMP-9 (BF4T, 1.23E2 nM): -0.047
- PAI-I (BF4T, 1.23E2 nM): -0.013
- SRB (BF4T, 1.23E2 nM): 0.00469
- tPA (BF4T, 1.23E2 nM): 0.032
- uPA (BF4T, 1.23E2 nM): 0.00319
- CCL2/MCP-1 (BF4T, 1.37E1 nM): 0.00746
- CCL26/Eotaxin-3 (BF4T, 1.37E1 nM): -0.134
- CD54/ICAM-1 (BF4T, 1.37E1 nM): -0.057
- CD90 (BF4T, 1.37E1 nM): -0.011
- CD106/VCAM-1 (BF4T, 1.37E1 nM): -0.028
- CXCL8/IL-8 (BF4T, 1.37E1 nM): -0.024
- IL-1alpha (BF4T, 1.37E1 nM): -0.024
- Keratin 8/18 (BF4T, 1.37E1 nM): -0.00271
- MMP-1 (BF4T, 1.37E1 nM): -0.015
- MMP-3 (BF4T, 1.37E1 nM): 0.049
- MMP-9 (BF4T, 1.37E1 nM): -0.026
- PAI-I (BF4T, 1.37E1 nM): -0.020
- SRB (BF4T, 1.37E1 nM): 0.005
- tPA (BF4T, 1.37E1 nM): 0.049
- uPA (BF4T, 1.37E1 nM): 0.009
- CCL2/MCP-1 (BF4T, 3.33E3 nM): -0.061
- CCL26/Eotaxin-3 (BF4T, 3.33E3 nM): -0.184
- CD54/ICAM-1 (BF4T, 3.33E3 nM): -0.074
- CD90 (BF4T, 3.33E3 nM): 0.011
- CD106/VCAM-1 (BF4T, 3.33E3 nM): 0.002
- CXCL8/IL-8 (BF4T, 3.33E3 nM): -0.042
- IL-1alpha (BF4T, 3.33E3 nM): -0.055
- Keratin 8/18 (BF4T, 3.33E3 nM): -0.022
- MMP-1 (BF4T, 3.33E3 nM): -0.012
- MMP-3 (BF4T, 3.33E3 nM): -0.048
- MMP-9 (BF4T, 3.33E3 nM): -0.00425
- PAI-I (BF4T, 3.33E3 nM): -0.026
- SRB (BF4T, 3.33E3 nM): 0.006
- tPA (BF4T, 3.33E3 nM): 0.015
- uPA (BF4T, 3.33E3 nM): -0.019
- CCL2/MCP-1 (BF4T, 3.70E2 nM): -0.039
- CCL26/Eotaxin-3 (BF4T, 3.70E2 nM): -0.177
- CD54/ICAM-1 (BF4T, 3.70E2 nM): -0.076
- CD90 (BF4T, 3.70E2 nM): -0.00567
- CD106/VCAM-1 (BF4T, 3.70E2 nM): -0.004
- CXCL8/IL-8 (BF4T, 3.70E2 nM): -0.042
- IL-1alpha (BF4T, 3.70E2 nM): -0.090
- Keratin 8/18 (BF4T, 3.70E2 nM): -0.012
- MMP-1 (BF4T, 3.70E2 nM): -0.008
- MMP-3 (BF4T, 3.70E2 nM): 0.015
- MMP-9 (BF4T, 3.70E2 nM): -0.018
- PAI-I (BF4T, 3.70E2 nM): 0.003
- SRB (BF4T, 3.70E2 nM): 3.34e-5
- tPA (BF4T, 3.70E2 nM): 0.027
- uPA (BF4T, 3.70E2 nM): -0.022
- CCL2/MCP-1 (BF4T, 4.12E1 nM): -0.019
- CCL26/Eotaxin-3 (BF4T, 4.12E1 nM): -0.203
- CD54/ICAM-1 (BF4T, 4.12E1 nM): -0.044
- CD90 (BF4T, 4.12E1 nM): 0.0044
- CD106/VCAM-1 (BF4T, 4.12E1 nM): -0.036
- CXCL8/IL-8 (BF4T, 4.12E1 nM): -0.031
- IL-1alpha (BF4T, 4.12E1 nM): -0.038
- Keratin 8/18 (BF4T, 4.12E1 nM): 0.00849
- MMP-1 (BF4T, 4.12E1 nM): -0.002
- MMP-3 (BF4T, 4.12E1 nM): 0.027
- MMP-9 (BF4T, 4.12E1 nM): -0.011
- PAI-I (BF4T, 4.12E1 nM): -0.009
- SRB (BF4T, 4.12E1 nM): 0.000731
- tPA (BF4T, 4.12E1 nM): 0.025
- uPA (BF4T, 4.12E1 nM): -0.00027
- CCL2/MCP-1 (BF4T, 4.57E0 nM): 0.041
- CCL26/Eotaxin-3 (BF4T, 4.57E0 nM): -0.086
- CD54/ICAM-1 (BF4T, 4.57E0 nM): -0.034
- CD90 (BF4T, 4.57E0 nM): -0.000153
- CD106/VCAM-1 (BF4T, 4.57E0 nM): -0.018
- CXCL8/IL-8 (BF4T, 4.57E0 nM): 0.024
- IL-1alpha (BF4T, 4.57E0 nM): -0.020
- Keratin 8/18 (BF4T, 4.57E0 nM): -0.00266
- MMP-1 (BF4T, 4.57E0 nM): 0.000794
- MMP-3 (BF4T, 4.57E0 nM): 0.054
- MMP-9 (BF4T, 4.57E0 nM): -0.023
- PAI-I (BF4T, 4.57E0 nM): 0.019
- SRB (BF4T, 4.57E0 nM): -0.008
- tPA (BF4T, 4.57E0 nM): 0.057
- uPA (BF4T, 4.57E0 nM): -0.00538
- B cell Proliferation (BT, 1.00E4 nM): -0.013
- PBMC Cytotoxicity (BT, 1.00E4 nM): -0.020
- Secreted IgG (BT, 1.00E4 nM): -0.332
- sIL-2 (BT, 1.00E4 nM): 0.00561
- sIL-6 (BT, 1.00E4 nM): -0.027
- sIL-17A (BT, 1.00E4 nM): 0.321
- sIL-17F (BT, 1.00E4 nM): -0.397
